Experimental data: patent US20220334101A1, “MODULATING EXTRACELLULAR MATRIX MOVEMENT” (Helmholtz Zentrum Muenchen - Deutsches Forschungszentrum …, priority 2019, published 2022)
“Also recorded” adds a separate entry of the source. Where a name gives a salt, the structure may show the parent alone. Read-outs that look alike come from different tables or passages of the source.

Tests used:
[1] = tested on: skin-fascia explants; assay: Scar-in-a-dish (SCAD) ex vivo skin-fascia explant assay, screening of Prestwick chemical library; format: cell-based, mouse; settings: molecules of table 1 named as inhibitors of ECM movement
From the text: Post born Day 0 (P0) neonates of C57BL/6J wild type mouse were first sacrificed by decapitation. Then dorsal back skin was isolated to make 2 mm full thickness biopsies (0 2 mm, Stiefel) that included the epidermis, dermis and deep subcutaneous fascia layers. The whole skin tissue explant system is termed as scar-in-a-dish (SCAD) assay (Patent Application no. PLA17A13). The SCAD tissue was maintained in DMEM/F12 cell culture medium (Life Technologies) supplemented with 10% FBS (Life Technologies), 1% non-essential amino acid (Thermo Fisher), 1% Glutamax (Thermo Fisher), 1% penicillin and streptomycin (Thermo Fisher) in a 37° C. incubator supplied with […] and 5% CO2. Medium was changed every other day until day 5 when SCADs were collected and fixed for histology analysis. To be noticed, the excised skin was submerged […] in culture media, which confined the scar-prone fibroblasts to the explant and discouraged their adherence to the tissue culture plate.
The PCL provides an additional advantage as all chemicals are of stable physicochemical properties, show a high range of chemical diversity, and are with known bioavailability and safety data in humans. All these information helps to reduce the probability of screening low-quality hits and save the costs of preliminary screening process.
In order to accommodate to medium scale screening approach, the Inventors adapted the SCAD explant system into 96-well plate (Falcon) formats, with each well contained one biopsy. […] Plate and liquid handling were performed using a high-throughput screening platform system composed of a Sciclone G3 Liquid Handler from PerkinElmer (Waltham, Mass., USA). On Day 0 tissues were treated either with the respective compound (1 mM stock solution) dissolved in 100% dimethyl sulfoxide (DMSO, Carl Roth) or DMSO alone. 0.5 μl of compounds/DMSO were transferred with a 96-array head to 200 μl DMEM/F12 medium per well to keep the final DMSO concentrations at […]. Tissues were then incubated (37° C.; 5% CO2) for 72 h prior to a second round of compound treatment, which was performed by exchanging cell culture medium per well and transferring […] of compounds/DMSO into the fresh medium. After an incubation time of another 48 h (37° C.; 5% CO2) the tissues were harvested and fixed for histological processing and imaging.
Briefly, the Inventors excised 2-mm full thickness skin biopsies that included epidermis, dermis, and deep subcutaneous fascia layers from mouse backs (see Methods). Skin-fascia explants were submerged fascia-side up in culture media, to confine scar-prone fibroblasts to the explant and discourage their adherence to the tissue culture plate.
The Prestwick library has selected a diverse array of chemicals with strong physicochemical properties, with known bioavailability and clinical safety data. The library is an ideal place to start screening as it covers all major therapeutic chemical classes such as central nervous system, cardiovascular system, metabolism, and infectious diseases.

[2] = tested on: fascia fibroblasts; assay: Fascia invasion assay (ex vivo fascia 3D Matrigel culture); format: cell-based, mouse
Protocol: In order to observe the dynamic changes of fascia fibroblasts, the inventors isolated dorsal skin from P4 to P6 neonates of En1^Cre; R26^mTmG mouse lines. Cre positive neonates from this double transgenic mouse line were detected by green fluorescent signal in dorsal skin with a Leica M205 FA stereo microscope. Matrigel was prepared by diluting the stock aliquots with DMEM/F12 medium to a concentration of 6 mg/ml. Then 150 μl prepared gel was added in the center of a 35 mm cell culture dish (Ibidi). 4 mm biopsies were made from the dorsal skin and fascia tissues were then isolated from the dorsal skin tissues. Isolated fascia tissues were then embedded into the gel and were allowed to be solidified for one hour at 37° C. Then the tissue-gel system was maintained in DMEM/F12 medium (Life Technologies) supplemented with 10% FBS (Life Technologies), 1% non-essential amino acid (Thermo Fisher), 1% Glutamax (Thermo Fisher), 1% penicillin and streptomycin (Thermo Fisher) in a 37° C. incubator supplied with 95% O2 and 5% CO2. Medium was changed every other day until day 4 when tissues were collected and fixed. For fixation with Matrigel system, tissues were fixed in 2% paraformaldehyde (VWR) with 0.1% glutaraldehyde (Sigma) for 1 hour and then washed three times with phosphate buffered saline (PBS, Life Technologies) and stored in PBS at 4° C.
Fascia tissues were recorded everyday by a brightfield microscope to check the invasion and contraction state of the tissues. The invasion index was calculated with the following formula: Invasion index=(SD4−SD0)/SD0
SD4 and SD0 represent tissue size (including the migrated area) on Day 4 and Day 0, respectively. The contraction index was calculated with the following formula: Contraction index=(TD0−TD4)/TD0
TD4 and TD0 represent original tissue size (excluding the migrated area) on Day 4 and Day 0 respectively.
The Inventors isolated fascia from back-skin of En1^Cre; R26^mTmG double-transgenic mice, separately incubated whole fascia explants with 26 small molecules, and measured the invasion index (Si)=(SD4−SD0)/SD0 (see Methods) as a proxy measure of sprouting and reticulation.

[3] = tested on: fascia fibroblasts; assay: 3D staining of fascia tissue for αSMA, Ki67 and caspase 3; format: cell-based, mouse; settings: fascia tissue in Matrigel
Protocol: (§1) In order to characterize the properties of fascia samples cultured in Matrigel, the Inventors fixed the whole gel (with fascia tissue embedded inside) and conducted 3D staining. Samples were immersed overnight in PBSGT (lx PBS implemented with 0.2% gelatin (Sigma), 0.5% Triton X-100 (Sigma) and 0.01% thimerosal (Sigma)) at room temperature and incubated with primary antibodies diluted in PBSGT for three days at room temperature. The tissues were then washed three times with PBSGT for at least 30 min each time and incubated with secondary antibodies diluted in PBSGT for one day. Finally, tissues were rinsed three times with PBSGT and stored in PBS at 4° C. until imaging. 3D whole mount imaging was conducted with a Leica SP8 multi-photon microscope.
(§2) Primary and secondary antibodies applied in 3D staining: αSMA (ab21027, Abcam), Ki 67 (ab16667, Abcam), Cleaved Caspase-3 (9661S, Cell signalling), Gli1 (ab49314, Abcam), Donkey anti rabbit AF647 (A-31573, Life Technologies), Donkey anti goat AF647 (A-21447, Life Technologies).
To better understand the molecular basis of reticulations that leads to scarring, the Inventors took a closer look at the molecular targets of the ‘hit’ chemicals. […] Thiostrepton reduces the binding activity of the transcriptional factor FoxM1; a positive regulator of Gli1 signaling (REF). Whereas Itraconazole inhibits Gli nuclear activity through stopping SMO moving to the membrane of primary cilia and thus inhibiting the pathway (James et al., 2010). […] The 3rd anti-scar drug Fluvastatin inhibits 3-Hydroxy-3-methylglutaryl-coenzyme A (HMG-CoA) reductase, a rate-limiting enzyme in cholesterol biogenesis that is required for hedgehog pathway activation (Huang P et al., 2016; Giovanni Luchetti et al., 2016). […] Thus, the Inventors conclude that anti-fibrosis chemicals converge on SHH pathway signaling to modulate fibroblast sprouting and reticulations, needed to mobilize fascia jelly into sites of injury.
The hedgehog pathway was also reported to induce proliferation and to depress apoptosis.

[4] = tested on: fascia matrix mobilization into wounds; assay: Fascia labelling study: fascia mobilization into excisional back-skin wounds in live mice; format: in vivo, mouse; settings: 75 μl of 250 μM three times a week, wounds collected Day 7
Protocol: For the fascia labelling study, 2 mg/ml NHS-fluorescein dye was subcutaneously injected into dorsal skin of wildtype mice at 4 days and 2 days prior to the surgery. After labelling, excisional wounds were made in mouse back-skin and treated with 75 μl saline diluted chemical solutions with a final concentration of 250 μM three times a week from the surgery day onwards. Scar samples were collected on D7.
Having discovered sprouting and reticulations are altered by the compounds, the Inventors went on to check how these effect fascia mobilization in physiologic wounds in live animals. First, the Inventors labelled the subcutaneous fascia layer with a FITC-NHS ester dye in animals, then made full thickness excisional wounds on the backs of fascia-labelled mice, and followed wound healing under the presence of a […] injection regimen using the above 3 separate compounds. Skin wounds were collected at Day 7 after wounding to determine the extent of fascia mobilization and also at 21 days post-injury to determine final wound size and scar severity. In DMSO control groups, the fascia matrix jelly was mobilized into the wound from all sides of the wound, and wounds at 7 days were completely clogged with large patches of labelled matrix jelly.

[5] = tested on: scars of splinted back-skin wounds; assay: In vivo splinted wound model (scar formation); set-up: species or system mouse; settings: 75 μl per wound of 250 μM intra-dermally, day 21, trichrome staining
[6] = tested on: fascia matrix; assay: Fascia in vitro culture, live imaging of matrix movements (SHG); format: cell-based, mouse; settings: C57BL6/J neonate fascia biopsy, 100 μM Etoposide
Protocol: Two in vitro systems were used. To visualize the changes in matrix architecture in real time, 2 mm-diameter biopsies were excised from P0 C57BL/6J neonates and processed for live imaging (SCAD assay, Patent Application No. PLA17A13). To determine the effectiveness of the DT treatment, muscle+fascia was manually separated from the rest of the skin in the chimeric grafts experiments and incubated with DT at different concentrations for 1 h at ambient temperature. […]
Histological sections were imaged using a using a ZEISS AxioImager.Z2m (Carl Zeiss). […] Second harmonic generation signal and green auto-fluorescence as a reference were recorded every hour. […]
Histological images were analyzed using ImageJ. For quantification of labeled cells in the fate mapping experiments, the Inventors manually defined the wound, surrounding dermis, and adjacent fascia areas. […] The number of labeled cells in each area was determined by quantifying the particles that were double-positive for DAPI and for the desired label (eg. Dil, GFP, etc) channels. The coverage of the labeled matrix in the wound area was determined by quantifying the area that was double-positive for the labeled matrix and the COLLAGEN I+III+VI staining signal. […] Scar length was quantified from randomly selected sections taken from the middle of the scar using as a reference the two flanking hair follicles. […]

[7] = tested on: Gli1; assay: 3D staining of fascia tissue for Gli1 (hedgehog pathway); format: cell-based, mouse; settings: fascia tissue in Matrigel
Protocol: as §1, §2
To better understand the molecular basis of reticulations that leads to scarring, the Inventors took a closer look at the molecular targets of the ‘hit’ chemicals. […] Thiostrepton reduces the binding activity of the transcriptional factor FoxM1; a positive regulator of Gli1 signaling (REF). […]

[8] = listed as Fluvastatin, sodium salt

Structure (SMILES)	phenotype as inhibitor of ECM movement [1]	inter-cell connectivity, sprouting and reticulations within the fascia [2]	cell death (caspase 3) [3]	cell proliferation activity (Ki67) [3]	fascia (matrix jelly) mobilization into wounds [4]	scar size / scarring of wounds [5]	fascia matrix movements (contraction) [6]	inter-cell connectivity, sprouting and reticulations within the fascia [2, 8]	inter-cell connectivity, sprouting and reticulations within the fascia ([2]; sodium salt)	Gli1 protein expression [7]	αSMA expression / activation into myofibroblasts [3]	fascia (matrix jelly) mobilization into wounds [4, 8]	fascia (matrix jelly) mobilization into wounds ([4]; sodium salt)
C=C(NC(=O)C(=C)NC(=O)c1csc(C2=N[C@@H]3c4csc(n4)[C@H]4NC(=O)c5csc(n5)[C@H]([C@](C)(O)[C@@H](C)O)NC(=O)[C@H]5CSC(=N5)/C(=C/C)NC(=O)[C@H]([C@@H](C)O)NC(=O)c5csc(n5)[C@]3(CC2)NC(=O)[C@H](C)NC(=O)C(=C)NC(=O)[C@H](C)NC(=O)[C@H]([C@@H](C)CC)N[C@@H]2C=Cc3c([C@H](C)O)cc(nc3[C@H]2O)C(=O)O[C@@H]4C)n1)C(N)=O [Thiostrepton]	anti-fibrotic phenotype	completely inhibited sprouting and reticulations	increased	decreased	reduced fascia jelly movements; also recorded: inhibited	reduced scaring of wounds	–	–	–	–	–	–	–
COc1cc([C@@H]2c3cc4c(cc3[C@@H](O[C@@H]3O[C@@H]5CO[C@@H](C)O[C@H]5[C@H](O)[C@H]3O)[C@H]3COC(=O)[C@H]23)OCO4)cc(OC)c1O [Etoposide]	–	–	–	–	–	–	no effect; also recorded: clear contraction of the fascial matrix in culture in absence of cell proliferation	–	–	–	–	–	–
CC(C)n1c(/C=C/C(O)CC(O)CC(=O)O)c(-c2ccc(F)cc2)c2ccccc21 (centres unmarked) [Fluvastatin sodium salt]	anti-fibrotic phenotype	–	increased	decreased	–	reduced scaring of wounds	–	intact cell-cell connection and network formation	completely inhibited sprouting and reticulations	weakly expressed	cells can be activated into myofibroblast	completely inhibited	reduced fascia jelly movements
